Experiments:
Format in all cases: in vivo, human
[1] = Essential fatty acid parameters in plasma, 6-week AAMI study (Example 2)
Protocol: A single-center, 6-week, double-blind, randomized, parallel-group, placebo-controlled, dose-ranging pilot study was performed to evaluate the efficacy, tolerability, and safety of >96% E-EPA in subjects with subjective and objective memory impairment according to generally accepted criteria for Age-Associated Memory Impairment (“AAMI”). The primary objective of the study was to determine the effect of >96% E-EPA 1 g, 2 g, and 4 g daily, compared to placebo, on cognitive performance in subjects with AAMI.
Ninety-four subjects were randomized into one of six groups: 1 g E-EPA daily (n=23), 2 g E-EPA daily (n=24), 4 g E-EPA daily (n=24), 1 g placebo daily (n=7), 2 g placebo daily (n=8), and 4 g placebo daily (n=8). E-EPA was provided as 500 mg soft gel capsules containing >96% E-EPA and 0.2% dl-α-tocopherol as an antioxidant. Placebo capsules contained 467 mg of liquid paraffin and 0.2% dl-α-tocopherol. Ninety-one subjects completed the study. Two subjects in the 2 g E-EPA group and one subject in the 2 g placebo group discontinued the study.
Blood samples (10 mL) were collected at Visit 1 (screening) and at Visits 4, 5, and 6. Analysis was performed by MSR Lipid Analysis, Scottish Crop Research Institute, Dundee, UK. The screening sample acted as baseline for the EFA measurements. Lipid was extracted from plasma, serum, and RBC suspensions and converted into fatty acid methyl esters which were analyzed by gas chromatography to give fatty acid profiles as micrograms fatty acid per gram of sample ([…]) and normalized area percent.
RBC and plasma EFA data were collected at baseline, Day 14, 28, and 42 and summarized by visit for each treatment group. Change from baseline and percent change from baseline were also summarized. ANCOVA comparison of E-EPA dose groups and E-EPA versus placebo was performed.

[2] = test system: patients with chronic kidney disease (eGFR<60 mL/min/1.73 m^2); test: Post-hoc ANCHOR analysis, chronic kidney disease: lipid, lipoprotein, oxidation and inflammation parameters (Example 7); details: CKD
Protocol: (§1) CVD-related (e.g., atherogenic) parameters were analyzed in a post-hoc study of 55 patients from the multi-center, placebo-controlled, randomized double-blind, 12-week study described in Example 1. These 55 patients have chronic kidney disease (e.g., eGFR<60 mL/min/1.73 m^2 for ≥3 months). There was no lower limit of eGFR specified.
(§2) 19 patients were randomized to E-EPA and 36 patients were randomized to placebo. One patient in each group discontinued and was excluded from efficacy analyses (but not safety analyses). EPA levels in plasma and RBC were measured in 23 of the 55 patients. These measurements were taken on 7 of the patients randomized to E-EPA and on 16 of the patients that were randomized to the placebo.
The primary objective of this post-hoc study, which is based on an intention to treat, was to determine if and how 4 g daily of >96% E-EPA affects patients with stage 3 chronic kidney disease (e.g., eGFR<60 mL/min/1.73 m^2 for ≥3 months). The secondary objective was to determine if and how 4 g daily of >96% E-EPA, compared to a placebo, affected CVD-related parameters in patients with a high risk of CVD and fasting TG levels ≥[…] and <500 mg/dL, despite LDL-C goal on statin therapy. These CVD-parameters include lipid levels, lipoprotein levels, and inflammatory markers, such as TC, LDL-C, HDL-C, vLDL-C, vLDL-TG, RLP-C, non-HDL-C, Apo B, Apo C-III, Lp-PLA, hsCRP, and ox-LDL, and in plasma and RBC EPA concentration. CVD-parameters were analyzed for median difference in percent change from baseline to week 12 in subjects receiving 4 g/day of E-EPA and those receiving the placebo.
(§3) The median difference in percent change from baseline between 4 g/day of E-EPA and placebo for the primary efficacy variable and additional assessments were estimated using the Hodges-Lehmann method (P values from the Wilcoxon rank-sum test for treatment comparisons). Using the Hodges-Lehmann method, departures from normal distribution were observed; for normally distributed parameters, an analysis of covariance model was used with least squares (LS) means and standard errors (SE). Missing values were imputed using the last-observation-carried-forward method. For all post hoc analyses, the alpha for statistical significance was 0.05.

[3] = test system: patients with chronic kidney disease (eGFR<60 mL/min/1.73 m^2); test: Renal parameters and safety in ANCHOR patients with CKD (Example 7)
Protocol: as §1, §2, §3

## CC/C=C\C/C=C\C/C=C\C/C=C\C/C=C\CCCC(=O)OCC [E-EPA, ethyl eicosapentaenoate]
[1]; plasma and RBC, 1, 2, and 4 g treatment groups
  EPA, DPAn-3, and EPA/AA ratio values from baseline to Day 42: increased substantially
[1]; plasma, 1 g daily, Day 14
  AA Mean change from Baseline, Mean (SD): −9.7 (22.20) μg/g
  DHA Mean change from Baseline, Mean (SD): −6.4 (13.30) μg/g
  EPA/AA Mean change from Baseline, Mean (SD): 0.3 (0.4)
[1]; plasma, 1 g daily, Day 28
  DHA Mean change from Baseline, Mean (SD): −6.6 (15.53) μg/g
  EPA/AA Mean change from Baseline, Mean (SD): 0.3 (0.20)
[1]; plasma, 1 g daily, Day 42
  AA Mean change from Baseline, Mean (SD): −8.7 (31.35) μg/g
  DGLA Mean change from Baseline, Mean (SD): −9.4 (9.41) μg/g
  DHA Mean change from Baseline, Mean (SD): −5.4 (18.17) μg/g
  EPA/AA Mean change from Baseline, Mean (SD): 0.3 (0.24)
[1]; plasma, 1 g daily
  EPA/AA Baseline Mean (SD): 0.2 (0.14)
[1]; plasma, 1 g versus 4 g
  AA LS Mean, 1 g versus 4 g: 4.2 µg/g
  DGLA LS Mean, 1 g versus 4 g: 3.7 µg/g
  DHA LS Mean, 1 g versus 4 g: -0.8 µg/g
  EPA/AA LS Mean, 1 g versus 4 g: −0.66
[1]; plasma, 2 g daily, Day 14
  DHA Mean change from Baseline, Mean (SD): −5.4 (14.29) μg/g
  EPA/AA Mean change from Baseline, Mean (SD): 0.6 (0.23)
[1]; plasma, 2 g daily, Day 28
  DHA Mean change from Baseline, Mean (SD): −8.1 (15.82) μg/g
  EPA/AA Mean change from Baseline, Mean (SD): 0.8 (0.35)
[1]; plasma, 2 g daily, Day 42
  DHA Mean change from Baseline, Mean (SD): −6.0 (16.69) μg/g
  EPA/AA Mean change from Baseline, Mean (SD): 0.7 (0.29)
[1]; plasma, 2 g daily
  EPA/AA Baseline Mean (SD): 0.2 (0.12)
[1]; plasma, 2 g versus 4 g
  DGLA LS Mean, 2 g versus 4 g: 2.5 µg/g
  DHA LS Mean, 2 g versus 4 g: 1.5 µg/g
  EPA/AA LS Mean, 2 g versus 4 g: −0.41
[1]; plasma, 4 g daily, Day 14
  EPA/AA Mean change from Baseline, Mean (SD): 1.1 (0.28)
[1]; plasma, 4 g daily, Day 28
  EPA/AA Mean change from Baseline, Mean (SD): 1.3 (0.42)
[1]; plasma, 4 g daily, Day 42
  EPA/AA Mean change from Baseline, Mean (SD): 1.3 (0.45)
[1]; plasma, 4 g daily
  EPA/AA Baseline Mean (SD): 0.2 (0.07)
[2]; 4 g/day vs placebo, week 12
  VLDL-C Median Difference in % Change From Baseline vs Placebo: −26.7%
[2]; 4 g/day vs placebo, week 12, listed as Icosapent Ethyl
  hsCRP Median Difference in % Change From Baseline vs Placebo: −25.0%
[2]; 4 g/day, baseline
  Apo B Baseline: 87.0 mg/dL
  HDL-C Baseline: 35.0 mg/dL
  LDL-C Baseline: 76.0 mg/dL
  VLDL-C Baseline: 42.0 mg/dL
  hsCRP Baseline: 1.9 mg/L
[2]; 4 g/day, baseline, n = 9
  RLP-C Baseline: 17.0 mg/dL
[2]; 4 g/day, week 12
  Apo B Change From Baseline, %: −7.2%
  Apo B End of Treatment: 83.0 mg/dL
  Apo C-III Change From Baseline, %: −7.3%
  HDL-C Change From Baseline, %: 0.9%
  LDL-C Change From Baseline, %: −6.5%
  Lp-PLA2 End of Treatment: 150.0 ng/mL
  Non-HDL-C Change From Baseline, %: −6.4%
  Ox-LDL Change From Baseline, %: −9.5%
  RLP-C End of Treatment: 10.0 mg/dL
  TC Change From Baseline, %: −8.1%
  hsCRP Change From Baseline, %: −16.9%
  hsCRP End of Treatment: 2.1 mg/L
[3]; 4 g/day
  nausea, nasopharyngitis, and arthralgia: not reported by any patients
[3]; 4 g/day vs placebo, P=0.1983
  eGFR median difference in change from baseline compared with placebo: −7.8%
  serum creatinine median difference in change from baseline compared with placebo: 6.5%
[3]; 4 g/day vs placebo, P=0.5291
  BUN median difference in change from baseline compared with placebo: 5.5%
[3]; 4 g/day vs placebo, P=0.5471
  BUN median difference in change from baseline compared with placebo: 1.0 mg/dL
[3]; 4 g/day, 2 patients
  patients reporting diarrhea: 10.5%
[3]; 4 g/day, 11 of 19 patients
  patients reporting TEAE: 57.9%
[3]; 4 g/day, 12-week study
  serum albumin change from baseline: no significant median changes from baseline
[3]; 4 g/day, baseline
  BUN, median (IQR), baseline: 24.5 (12.0) mg/dL
  eGFR, median (IQR), baseline: 55.0 (13.8) mL/min/1.73 m^2
  serum creatinine, median (IQR), baseline: 1.2 (0.3) mg/dL
[3]; 4 g/day, compared to placebo control
  changes in serum creatinine, blood urea nitrogen (BUN), or eGFR from baseline to week 12: did not produce significant changes
[3]; 4 g/day, week 12
  BUN, median (IQR), week 12: 22.5 (11.0) mg/dL
  eGFR, median (IQR), week 12: 56.0 (12.9) mL/min/1.73 m^2
  serum creatinine, median (IQR), week 12: 1.2 (0.4) mg/dL

From patent US10966951B2, “Compositions and methods for lowering triglycerides in a subject having reduced kidney function” (Amarin Pharmaceuticals Ireland Limited, priority 2017, dated 2021)
